Structures can show the parent of a compound that is named as a salt.
How the values were obtained:
Format in all cases: cell-based, human
Design in all cases: unit not given here
Details in all cases: normal donors
monocytes = assay: Normal leukocyte enzyme activity (Table 3A), monocytes
Text: (§1) The measured fluorescence intensity can be converted from mean channel fluorescence (in peak or integrated mode) to MESF (molecules of equivalent soluble fluorochrome, Flow Cytometry Standards Corp. , San Juan, Puerto Rico) or International Units of hydrolysis per cell. A normal range of enzyme activity is established by assaying males and females in sufficient quantity to characterize the population levels statistically.
(§2) A normal in house adult donor pool was drawn, recording sex and determining that no known disease state was present at the time of sample draw. Criteria for rejecting samples included patients under medication, patients with infection or inflammation of any type, colds and flu as well as any known medical illness such as cancer, heart ailment and high blood pressure. A donor list of 75 patients has been developed and a mean and 2 sd range established. A subgroup of "super normals" was developed from this list by examining the 75 patients to determine which group falls closest to the mean for all enzymes in all cell types tested. These patients were used as the "wellness index" or best group of "normalcy" patients. If a study required the use of children or newborns then this same format was used to develop a data base for these age groups.

granulocytes = assay: Normal leukocyte enzyme activity (Table 3A), granulocytes
Text: as §1, §2

lymphocytes = assay: Normal leukocyte enzyme activity (Table 3A), lymphocytes
Text: as §1, §2

| Compound | NORMAL LEUKOCYTE ENZYME ACTIVITY, MONOS Mean (monocytes) | NORMAL LEUKOCYTE ENZYME ACTIVITY, GRANS Mean (granulocytes) | NORMAL LEUKOCYTE ENZYME ACTIVITY, LYMPHS Mean (lymphocytes) |
| --- | --- | --- | --- |
| CCCCCCC(=O)Oc1ccc2c(c1)Oc1cc(OC(=O)CCCCCC)ccc1C21OC(=O)c2ccccc21 [DIHEP 6.5, FL(heptanoate)2] | 32.25 | 18.57 | 9.17 |
| C[C@H](NC(=O)[C@@H](N)CCCCN)C(=O)Nc1ccc2c(c1)Oc1cc(NC(=O)[C@H](C)NC(=O)[C@@H](N)CCCCN)ccc1C21OC(=O)c2ccccc21 [KA, (Lys-Ala)2 Rho 110] | 39.35 | 29.15 | 11.47 |
| CC(=O)Oc1ccc2c(c1)Oc1cc(OC(C)=O)ccc1C21OC(=O)c2ccccc21 [DIACET 6.5, Fluorescein (acetate)2, reference compound] | 534.00 | 408.88 | 109.89 |
| C[C@H](NC(=O)[C@@H](N)CCCCN)C(=O)Nc1ccc2c(c1)Oc1cc(NC(=O)[C@H](C)NC(=O)[C@@H](N)CCCCN)ccc1C21OC(=O)c2ccccc21 [KA--M, (Lys-Ala)2 Rho 110] | 8.74 | 1.74 | 0.55 |
| CCCCCC(=O)Oc1ccc2c(c1)Oc1cc(OC(=O)CCCCC)ccc1C21OC(=O)c2ccccc21 [DIHEX 6.5, FL(hexanoate)2] | 72.87 | 33.84 | 15.10 |
| O=C(CCl)Oc1ccc2c(c1)Oc1cc(OC(=O)CCl)ccc1C21OC(=O)c2ccccc21 [CHLOAC, FL(chloroacetate)2] | 7.33 | 6.48 | 2.49 |
| N[C@@H](CC(=O)O)C(=O)Nc1ccc2c(c1)Oc1cc(NC(=O)[C@@H](N)CC(=O)O)ccc1C21OC(=O)c2ccccc21 [ASP, (H--L--Asp)2 --Rho 110.2TFA] | 0.66 | 0.45 | 0.26 |
| CC(C)[C@H](N)C(=O)N[C@@H](CO)C(=O)Nc1ccc2c(c1)Oc1cc(NC(=O)[C@H](CO)NC(=O)[C@@H](N)C(C)C)ccc1C21OC(=O)c2ccccc21 [VS, (H--L--Val--Ser)2 Rho 110.2TFA] | 19.61 | 8.27 | 3.81 |
| (carbobenzyloxycarbonyl-Gly-Pro)2 Rho 110 (modified) [Z--GP--M] | 119.81 | 130.62 | 53.74 |
| CC(C)C[C@H](NC(=O)CN)C(=O)Nc1ccc2c(c1)Oc1cc(NC(=O)[C@H](CC(C)C)NC(=O)CN)ccc1C21OC(=O)c2ccccc21 [GL, (H Gly--Leu)2 Rho 110.2FTA] | 41.78 | 29.16 | 9.42 |
| O=C1OC2(c3ccc(OC4O[C@H](CO)[C@H](O)[C@H](O)[C@H]4O)cc3Oc3cc(OC4O[C@H](CO)[C@H](O)[C@H](O)[C@H]4O)ccc32)c2ccccc21 (stereo partly drawn) [GALAC, (D-galactose)2 fluorescein] | 5.94 | 1.58 | 0.38 |
| CCCCCCCCCCCCCCCC(=O)Oc1ccc2c(c1)Oc1cc(OC(=O)CCCCCCCCCCCCCCC)ccc1C21OC(=O)c2ccccc21 [DIPAL 6.5, FL(palmitate)2] | 0.30 | 0.14 | 0.15 |
| CCCCCCCCCCCCCCCC(=O)Oc1ccc2c(c1)Oc1cc(OC(=O)CCCCCCCCCCCCCCC)ccc1C21OC(=O)c2ccccc21 [DIPAL 7.5, FL(palmitate)2] | 0.30 | 0.14 | 0.14 |
| CCCCCCC(=O)Oc1ccc2c(c1)Oc1cc(OC(=O)CCCCCC)ccc1C21OC(=O)c2ccccc21 [DIHEP 7.5, FL(heptanoate)2] | 36.15 | 20.41 | 9.73 |
| C[C@@H](O)[C@H](NC(=O)OCc1ccccc1)C(=O)N1CCC[C@H]1C(=O)Nc1ccc2c(c1)Oc1cc(NC(=O)[C@@H]3CCCN3C(=O)[C@@H](NC(=O)OCc3ccccc3)[C@@H](C)O)ccc1C21OC(=O)c2ccccc21 [Z--TP6.5, (carbobenzyloxycarbonyl-Thr-Pro)2 Rho 110 (pH 6.5)] | 49.69 | 58.05 | 21.97 |
| CC(=O)Oc1ccc2c(c1)Oc1cc(OC(C)=O)ccc1C21OC(=O)c2ccccc21 [DIACET 7.5, Fluorescein (acetate)2, reference compound] | 432.78 | 348.01 | 89.30 |
| C[C@H](NC(=O)OCc1ccccc1)C(=O)N[C@@H](C)C(=O)Nc1ccc2c(c1)Oc1cc(NC(=O)[C@H](C)NC(=O)[C@H](C)NC(=O)OCc3ccccc3)ccc1C21OC(=O)c2ccccc21 [Z--AA, (Z--Ala--Ala)2 Rho 110] | 328.25 | 363.20 | 151.20 |
| C[C@H](NC(=O)OCc1ccccc1)C(=O)NCC(=O)Nc1ccc2c(c1)Oc1cc(NC(=O)CNC(=O)[C@H](C)NC(=O)OCc3ccccc3)ccc1C21OC(=O)c2ccccc21 [Z--AG, (Z--Ala--Gly)2 Rho 110] | 34.51 | 33.19 | 15.17 |
| CCCCCC(=O)Oc1ccc2c(c1)Oc1cc(OC(=O)CCCCC)ccc1C21OC(=O)c2ccccc21 [DIHEX 7.5, FL(hexanoate)2] | 37.22 | 17.57 | 7.54 |
| CCC(=O)Oc1ccc2c(c1)Oc1cc(OC(=O)CC)ccc1C21OC(=O)c2ccccc21 [DIPRO 7.6, FL(propionate)2] | – | 429.17 | 96.34 |
| (Val-Lys)2 Rho 110 (modified) [VK--M] | 43.37 | 4.31 | 2.05 |
| N=C(N)NCCC[C@H](N)C(=O)Nc1ccc2c(c1)Oc1cc(NC(=O)[C@@H](N)CCCNC(=N)N)ccc1C21OC(=O)c2ccccc21 (stereo partly drawn) [ARG, (H--L--Arg)2 Rho 110.4TFA] | 10.34 | 5.16 | 1.47 |
| C[C@H](N)C(=O)N[C@@H](C)C(=O)Nc1ccc2c(c1)Oc1cc(NC(=O)[C@H](C)NC(=O)[C@H](C)N)ccc1C21OC(=O)c2ccccc21 [AA--TFA, (H--L--Ala--Ala)2 Rho 110.2TFA] | 158.31 | 154.81 | 56.95 |
| N[C@@H](CO)C(=O)Nc1ccc2c(c1)Oc1cc(NC(=O)[C@@H](N)CO)ccc1C21OC(=O)c2ccccc21 [SER, (H--L--Ser)2 Rho 110.2TFA] | 6.49 | 3.40 | 1.35 |
| C[C@H](N)C(=O)Nc1ccc2c(c1)Oc1cc(NC(=O)[C@H](C)N)ccc1C21OC(=O)c2ccccc21 [ALA, (Ala)2 Rho 110] | 172.33 | 149.02 | 75.85 |
| CCC(=O)Oc1ccc2c(c1)Oc1cc(OC(=O)CC)ccc1C21OC(=O)c2ccccc21 [DIPRO 6.5, FL(propionate)2] | 441.65 | 349.18 | 86.11 |
| O=C(NCC(=O)N1CCC[C@H]1C(=O)Nc1ccc2c(c1)Oc1cc(NC(=O)[C@@H]3CCCN3C(=O)CNC(=O)OCc3ccccc3)ccc1C21OC(=O)c2ccccc21)OCc1ccccc1 [Z--GP, (carbobenzyloxycarbonyl-Gly-Pro)2 Rho 110] | 225.10 | 240.99 | 107.56 |
| NC(=O)CC[C@H](N)C(=O)N[C@@H](CO)C(=O)Nc1ccc2c(c1)Oc1cc(NC(=O)[C@H](CO)NC(=O)[C@@H](N)CCC(N)=O)ccc1C21OC(=O)c2ccccc21 [QS, (H--L--Gln--Ser)2 Rho 110.2TFA] | 10.66 | 4.67 | 1.70 |
| CC(C)[C@H](N)C(=O)N[C@@H](CCCCN)C(=O)Nc1ccc2c(c1)Oc1cc(NC(=O)[C@H](CCCCN)NC(=O)[C@@H](N)C(C)C)ccc1C21OC(=O)c2ccccc21 [VK, (Val-Lys)2 Rho 110] | 20.38 | – | 1.87 |
| CCCC(=O)Oc1ccc2c(c1)Oc1cc(OC(=O)CCC)ccc1C21OC(=O)c2ccccc21 [DIBUT 6.5, FL(butyrate)2] | 10.37 | 6.43 | 4.08 |

From US5776720A, “Assay reagent” (priority 1995, dated 1998)
